The values that follow come from ChEMBL document CHEMBL5291721, “A preclinical secondary pharmacology resource illuminates target-adverse drug reaction associations of marketed drugs” (Nat Commun, 2023).

As a reminder, the AC50 is the concentration at which the activity in the assay is half-maximal.

Targets include Histamine H1 receptor (Homo sapiens, UniProt P35367); Vasopressin V1a receptor (Homo sapiens, UniProt P37288); D(3) dopamine receptor (Homo sapiens, UniProt P35462).
The next assay addresses T1, B2 bradykinin receptor (Homo sapiens, UniProt P30411).
T1 sequence (P30411 whole entry): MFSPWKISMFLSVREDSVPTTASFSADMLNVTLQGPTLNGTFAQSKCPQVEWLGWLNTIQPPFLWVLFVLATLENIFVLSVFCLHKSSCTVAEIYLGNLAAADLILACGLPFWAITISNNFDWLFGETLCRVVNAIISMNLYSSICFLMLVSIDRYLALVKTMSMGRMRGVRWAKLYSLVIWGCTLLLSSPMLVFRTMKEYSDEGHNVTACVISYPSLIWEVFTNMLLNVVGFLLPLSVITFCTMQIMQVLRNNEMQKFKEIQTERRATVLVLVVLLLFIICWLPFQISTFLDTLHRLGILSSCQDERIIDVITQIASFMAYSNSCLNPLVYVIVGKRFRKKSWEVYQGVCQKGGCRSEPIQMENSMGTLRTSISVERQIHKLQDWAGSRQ

The target of assay [1] is T2, Muscarinic acetylcholine receptor M1 (Homo sapiens, UniProt P11229).
T2 sequence (P11229 whole entry): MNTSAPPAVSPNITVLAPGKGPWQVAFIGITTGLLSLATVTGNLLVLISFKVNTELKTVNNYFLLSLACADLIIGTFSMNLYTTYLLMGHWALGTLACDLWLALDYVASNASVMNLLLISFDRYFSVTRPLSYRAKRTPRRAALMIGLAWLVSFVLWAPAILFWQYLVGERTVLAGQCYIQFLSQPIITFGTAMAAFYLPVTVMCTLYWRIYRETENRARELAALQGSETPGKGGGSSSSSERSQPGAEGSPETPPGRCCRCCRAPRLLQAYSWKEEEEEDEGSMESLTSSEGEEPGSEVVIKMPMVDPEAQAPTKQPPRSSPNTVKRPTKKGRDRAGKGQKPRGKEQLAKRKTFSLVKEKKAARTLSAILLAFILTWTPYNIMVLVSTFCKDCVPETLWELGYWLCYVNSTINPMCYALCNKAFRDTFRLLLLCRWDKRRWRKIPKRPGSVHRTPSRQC
Type of assay: functional.

Assay [2] has as its target 5-hydroxytryptamine receptor 2A (Homo sapiens, UniProt P28223). Type of assay: functional, cell-based.
The target in assay [3] is Sodium-dependent serotonin transporter (Homo sapiens, UniProt P31645).
Sequence of Sodium-dependent serotonin transporter (P31645 whole entry): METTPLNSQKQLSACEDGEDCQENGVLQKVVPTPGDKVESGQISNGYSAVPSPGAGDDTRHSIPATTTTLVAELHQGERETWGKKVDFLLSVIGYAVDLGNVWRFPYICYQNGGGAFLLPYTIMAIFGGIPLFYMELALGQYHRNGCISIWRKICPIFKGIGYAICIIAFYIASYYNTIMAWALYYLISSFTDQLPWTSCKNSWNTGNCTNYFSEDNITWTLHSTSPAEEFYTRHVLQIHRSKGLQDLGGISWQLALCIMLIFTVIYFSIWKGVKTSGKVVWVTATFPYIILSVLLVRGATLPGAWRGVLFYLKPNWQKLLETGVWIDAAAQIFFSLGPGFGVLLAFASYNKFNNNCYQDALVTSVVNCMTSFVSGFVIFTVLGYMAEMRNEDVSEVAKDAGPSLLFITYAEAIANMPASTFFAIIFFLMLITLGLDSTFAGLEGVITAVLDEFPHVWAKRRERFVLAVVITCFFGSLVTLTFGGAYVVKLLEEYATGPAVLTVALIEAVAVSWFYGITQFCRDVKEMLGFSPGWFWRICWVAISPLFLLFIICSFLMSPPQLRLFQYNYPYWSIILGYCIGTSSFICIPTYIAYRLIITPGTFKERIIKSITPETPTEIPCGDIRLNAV
The target of assay [4] is Glutamate receptor ionotropic, NMDA 1 (Rattus norvegicus, UniProt P35439).
For assay [5], the target named is Voltage-dependent L-type calcium channel subunit alpha-1C (Rattus norvegicus, UniProt P22002). In kind it is functional.
Sequence of Voltage-dependent L-type calcium channel subunit alpha-1C (P22002 whole entry): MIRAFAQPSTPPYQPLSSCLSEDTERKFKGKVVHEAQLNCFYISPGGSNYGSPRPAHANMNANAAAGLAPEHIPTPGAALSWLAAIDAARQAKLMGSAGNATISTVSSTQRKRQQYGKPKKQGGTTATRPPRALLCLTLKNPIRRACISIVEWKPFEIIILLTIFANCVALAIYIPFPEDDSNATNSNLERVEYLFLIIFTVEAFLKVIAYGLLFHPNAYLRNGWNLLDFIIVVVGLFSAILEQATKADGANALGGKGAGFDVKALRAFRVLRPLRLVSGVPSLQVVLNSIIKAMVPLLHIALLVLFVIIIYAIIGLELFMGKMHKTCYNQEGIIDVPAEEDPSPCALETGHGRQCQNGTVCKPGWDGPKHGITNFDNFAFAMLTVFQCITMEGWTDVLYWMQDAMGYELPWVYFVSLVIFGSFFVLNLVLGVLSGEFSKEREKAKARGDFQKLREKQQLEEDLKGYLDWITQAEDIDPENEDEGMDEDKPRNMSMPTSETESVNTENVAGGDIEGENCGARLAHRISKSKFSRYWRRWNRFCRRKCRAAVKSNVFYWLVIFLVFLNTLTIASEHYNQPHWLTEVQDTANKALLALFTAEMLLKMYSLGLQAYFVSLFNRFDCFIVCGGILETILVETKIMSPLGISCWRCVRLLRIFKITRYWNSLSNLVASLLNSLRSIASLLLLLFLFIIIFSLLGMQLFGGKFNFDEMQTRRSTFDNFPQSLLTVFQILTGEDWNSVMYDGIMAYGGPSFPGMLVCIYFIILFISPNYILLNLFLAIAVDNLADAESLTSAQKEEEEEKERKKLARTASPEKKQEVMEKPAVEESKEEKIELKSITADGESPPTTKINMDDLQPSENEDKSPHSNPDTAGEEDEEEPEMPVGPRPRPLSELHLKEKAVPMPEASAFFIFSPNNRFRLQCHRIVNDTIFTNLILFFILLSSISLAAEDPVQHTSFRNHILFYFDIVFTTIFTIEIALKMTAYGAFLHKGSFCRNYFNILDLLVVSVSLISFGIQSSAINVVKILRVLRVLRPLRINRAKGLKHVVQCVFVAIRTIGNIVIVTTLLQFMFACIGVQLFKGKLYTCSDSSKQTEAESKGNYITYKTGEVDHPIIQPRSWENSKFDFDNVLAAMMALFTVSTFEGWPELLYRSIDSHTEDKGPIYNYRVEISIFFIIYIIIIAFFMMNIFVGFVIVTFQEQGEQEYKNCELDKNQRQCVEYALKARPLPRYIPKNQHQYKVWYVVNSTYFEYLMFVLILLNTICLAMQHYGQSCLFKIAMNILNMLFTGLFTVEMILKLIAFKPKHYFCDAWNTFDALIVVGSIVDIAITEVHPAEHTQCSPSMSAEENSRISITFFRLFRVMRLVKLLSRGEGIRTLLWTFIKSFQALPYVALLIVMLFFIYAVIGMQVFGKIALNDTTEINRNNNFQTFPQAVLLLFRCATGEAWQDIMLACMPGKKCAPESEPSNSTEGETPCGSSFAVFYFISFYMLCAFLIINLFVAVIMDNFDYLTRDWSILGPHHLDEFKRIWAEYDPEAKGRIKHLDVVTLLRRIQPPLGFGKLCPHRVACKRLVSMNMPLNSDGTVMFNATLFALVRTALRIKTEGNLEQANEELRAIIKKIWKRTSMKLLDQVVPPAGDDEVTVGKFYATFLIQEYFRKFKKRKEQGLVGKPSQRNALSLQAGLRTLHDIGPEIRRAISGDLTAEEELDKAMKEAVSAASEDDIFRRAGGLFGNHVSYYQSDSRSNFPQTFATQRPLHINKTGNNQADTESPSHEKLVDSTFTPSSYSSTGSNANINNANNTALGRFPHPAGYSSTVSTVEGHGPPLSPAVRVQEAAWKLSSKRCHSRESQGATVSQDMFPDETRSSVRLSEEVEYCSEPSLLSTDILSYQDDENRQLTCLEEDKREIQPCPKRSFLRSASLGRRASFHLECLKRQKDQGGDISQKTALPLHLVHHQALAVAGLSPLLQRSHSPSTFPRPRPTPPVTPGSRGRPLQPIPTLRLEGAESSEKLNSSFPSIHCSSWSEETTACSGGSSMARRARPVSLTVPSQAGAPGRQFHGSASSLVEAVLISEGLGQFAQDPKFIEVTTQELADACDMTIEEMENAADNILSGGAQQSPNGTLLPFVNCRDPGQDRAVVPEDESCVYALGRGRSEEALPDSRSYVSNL
The target in assay [6] is Beta-1 adrenergic receptor (Homo sapiens, UniProt P08588). In kind it is functional.
Sequence of Beta-1 adrenergic receptor (P08588 whole entry): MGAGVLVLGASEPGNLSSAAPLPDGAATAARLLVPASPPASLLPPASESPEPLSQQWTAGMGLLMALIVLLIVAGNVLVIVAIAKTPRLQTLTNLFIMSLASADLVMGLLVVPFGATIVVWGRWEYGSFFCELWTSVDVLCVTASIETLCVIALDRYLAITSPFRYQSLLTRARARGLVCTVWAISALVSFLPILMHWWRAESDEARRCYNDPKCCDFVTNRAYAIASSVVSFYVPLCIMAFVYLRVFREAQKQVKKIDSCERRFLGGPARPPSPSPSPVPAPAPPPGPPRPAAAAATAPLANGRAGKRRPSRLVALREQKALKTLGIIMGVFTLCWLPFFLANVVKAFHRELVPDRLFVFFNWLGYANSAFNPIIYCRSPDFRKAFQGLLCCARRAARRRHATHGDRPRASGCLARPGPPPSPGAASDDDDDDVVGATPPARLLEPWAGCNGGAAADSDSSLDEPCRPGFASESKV
Assay [7] has as its target T3, Mu-type opioid receptor (Homo sapiens, UniProt P35372).
The target in assay [8] is T3, Mu-type opioid receptor. The source holds these as a separate data set.
In assay [9] the target is 5-hydroxytryptamine receptor 2B (Homo sapiens, UniProt P41595). In kind it is functional, cell-based.
Another assay addresses T4, Thromboxane A2 receptor (Homo sapiens, UniProt P21731).
T4 sequence (P21731 whole entry): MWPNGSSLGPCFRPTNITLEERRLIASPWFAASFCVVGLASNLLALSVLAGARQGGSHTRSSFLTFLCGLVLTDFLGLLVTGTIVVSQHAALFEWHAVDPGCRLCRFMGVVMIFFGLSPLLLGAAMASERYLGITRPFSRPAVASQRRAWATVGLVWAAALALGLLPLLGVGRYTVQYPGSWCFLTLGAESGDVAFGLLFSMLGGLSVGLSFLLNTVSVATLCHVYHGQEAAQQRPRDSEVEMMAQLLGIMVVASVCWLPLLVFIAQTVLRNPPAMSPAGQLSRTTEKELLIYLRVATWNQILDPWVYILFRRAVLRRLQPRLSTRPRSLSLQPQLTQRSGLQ
In kind it is functional, cell-based.

Assay [10] has as its target 3',5'-cyclic-AMP phosphodiesterase 4A (Homo sapiens, UniProt P27815). Type of assay: functional.
Further: assay procedure not described here.

Sequence of Histamine H1 receptor (P35367 whole entry): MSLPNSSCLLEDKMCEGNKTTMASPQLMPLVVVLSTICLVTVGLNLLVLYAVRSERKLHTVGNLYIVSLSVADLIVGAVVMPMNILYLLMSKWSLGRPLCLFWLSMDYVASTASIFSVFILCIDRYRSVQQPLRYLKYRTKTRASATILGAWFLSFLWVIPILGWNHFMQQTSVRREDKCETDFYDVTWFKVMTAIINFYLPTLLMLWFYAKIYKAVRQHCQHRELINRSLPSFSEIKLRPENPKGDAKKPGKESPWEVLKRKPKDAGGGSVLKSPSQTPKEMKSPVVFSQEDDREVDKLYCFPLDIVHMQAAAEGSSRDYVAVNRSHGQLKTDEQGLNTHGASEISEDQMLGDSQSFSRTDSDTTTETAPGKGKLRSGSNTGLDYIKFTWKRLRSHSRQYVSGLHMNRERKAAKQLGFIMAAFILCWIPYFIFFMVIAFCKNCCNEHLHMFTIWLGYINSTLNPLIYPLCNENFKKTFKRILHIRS
Sequence of Vasopressin V1a receptor (P37288 whole entry): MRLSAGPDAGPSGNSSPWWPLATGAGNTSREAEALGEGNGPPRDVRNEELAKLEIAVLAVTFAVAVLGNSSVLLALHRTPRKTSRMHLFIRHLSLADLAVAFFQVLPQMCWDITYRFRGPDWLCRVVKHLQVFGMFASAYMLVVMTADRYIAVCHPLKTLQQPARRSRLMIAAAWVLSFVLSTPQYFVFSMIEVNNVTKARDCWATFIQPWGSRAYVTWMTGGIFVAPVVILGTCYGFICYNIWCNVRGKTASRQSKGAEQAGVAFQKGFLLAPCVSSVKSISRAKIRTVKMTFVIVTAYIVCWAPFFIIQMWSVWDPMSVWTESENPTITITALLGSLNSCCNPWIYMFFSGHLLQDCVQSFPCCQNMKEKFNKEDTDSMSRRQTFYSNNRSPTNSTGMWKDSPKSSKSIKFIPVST
T3 sequence (P35372 whole entry): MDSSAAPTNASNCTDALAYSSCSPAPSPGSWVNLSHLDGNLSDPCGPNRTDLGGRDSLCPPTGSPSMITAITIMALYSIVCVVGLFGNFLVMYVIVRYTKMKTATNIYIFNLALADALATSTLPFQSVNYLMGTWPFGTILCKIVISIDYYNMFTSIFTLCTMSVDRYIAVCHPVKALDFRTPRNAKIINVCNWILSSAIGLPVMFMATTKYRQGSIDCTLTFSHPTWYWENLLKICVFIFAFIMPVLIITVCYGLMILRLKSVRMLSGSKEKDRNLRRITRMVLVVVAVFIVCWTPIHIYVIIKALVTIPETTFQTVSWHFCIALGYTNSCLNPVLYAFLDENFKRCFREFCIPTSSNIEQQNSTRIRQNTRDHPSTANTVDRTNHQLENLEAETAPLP
Sequence of 5-hydroxytryptamine receptor 2A (P28223 whole entry): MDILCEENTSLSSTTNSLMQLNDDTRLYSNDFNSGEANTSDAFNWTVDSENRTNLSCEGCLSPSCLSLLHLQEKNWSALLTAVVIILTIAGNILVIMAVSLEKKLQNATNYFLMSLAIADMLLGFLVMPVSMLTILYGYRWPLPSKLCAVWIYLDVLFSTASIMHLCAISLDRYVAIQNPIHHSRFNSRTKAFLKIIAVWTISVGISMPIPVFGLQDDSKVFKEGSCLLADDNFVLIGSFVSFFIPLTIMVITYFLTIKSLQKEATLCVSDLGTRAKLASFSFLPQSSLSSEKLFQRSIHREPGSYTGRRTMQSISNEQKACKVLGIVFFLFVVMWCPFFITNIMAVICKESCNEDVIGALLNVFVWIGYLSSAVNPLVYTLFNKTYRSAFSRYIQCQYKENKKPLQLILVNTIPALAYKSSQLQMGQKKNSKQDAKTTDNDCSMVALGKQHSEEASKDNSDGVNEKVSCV

For `CN(C)CCOC(c1ccc(Cl)cc1)c1ccccn1` (stereo unspecified) [CARBINOXAMINE], the AC50 at B2 bradykinin receptor is greater than 30 µM; in [1], greater than 30 µM; on Histamine H1 receptor it was 0.11 µM; in assay [2], greater than 30 µM; in [3], 3 µM; in [4] it was greater than 30 µM. At Vasopressin V1a receptor, the AC50 is greater than 30 µM.

Take `CC(C)C[C@H](NC(=O)[C@H](Cc1ccccc1)NC(=O)c1cnccn1)B(O)O` [BORTEZOMIB]: the AC50 (in assay [5]; at B2 bradykinin receptor; in [1]; on Histamine H1 receptor; in [2]; in assay [3]) was greater than 30 µM each time. For the same compound, the AC50 (in [6]; in assay [4]; on Vasopressin V1a receptor) was greater than 30 µM each time.

In the case of `CC(C)(CO)c1cc2cc(NC(=O)C3(c4ccc5c(c4)OC(F)(F)O5)CC3)c(F)cc2n1C[C@@H](O)CO` [TEZACAFTOR], the AC50 (in assay [1]; on Histamine H1 receptor; in assay [2]; in [3]; in assay [6]; at Mu-type opioid receptor [7]) was greater than 30 µM each time. On Vasopressin V1a receptor, the AC50 is greater than 30 µM.

As for `CCOCC(O)COc1ccc(NC(=O)CC[S+](C)C)cc1` (stereo unspecified), the AC50 (in [1]; at Histamine H1 receptor; in assay [2]; in assay [3]; in assay [6]; on Mu-type opioid receptor [7]) was greater than 30 µM in each case. On Vasopressin V1a receptor, this compound gave a concentration at half-maximal activity (AC50) greater than 30 µM.

For the compound `CO[C@@H]1[C@@H](OC(N)=O)[C@@H](O)[C@H](Oc2ccc3c(O)c(NC(=O)c4ccc(O)c(CC=C(C)C)c4)c(=O)oc3c2C)OC1(C)C` [NOVOBIOCIN], the half-maximal activity concentration (AC50) (in [1]; at Histamine H1 receptor; in assay [2]; in [3]; in assay [6]; on Mu-type opioid receptor [7]) was greater than 30 µM each time. This compound yielded a concentration at half-maximal activity (AC50) on Vasopressin V1a receptor greater than 30 µM.

For `COc1cc2c(cc1OC)C1CC(=O)C(CC(C)C)CN1CC2` (stereo unspecified) [TETRABENAZINE], the concentration at half-maximal activity (AC50) (in [1]; on Histamine H1 receptor; in assay [2]; in [3]; in assay [6]; at Mu-type opioid receptor [7]) was greater than 30 µM throughout. This compound also registered an AC50 on Vasopressin V1a receptor greater than 30 µM.

Regarding `CCN(CC)CCn1c(=O)c(Cc2ccc(OC)cc2)nc2ccccc21` [CAROVERINE], the AC50 is greater than 30 µM in assay [5]; greater than 30 µM on B2 bradykinin receptor; greater than 30 µM in [1]; 25 µM on Histamine H1 receptor; greater than 30 µM in assay [2]; greater than 30 µM in [3]. For the same compound, the AC50 (in assay [6]; in [4]; at Vasopressin V1a receptor) was greater than 30 µM in each case.

Take `C[C@@H](O)[C@H]1C(=O)N2C(C(=O)O)=C(SCCN=CN)C[C@H]12` [IMIPENEM ANHYDROUS]: the half-maximal activity concentration (AC50) in [1] is 260 µM; on Histamine H1 receptor it was greater than 300 µM; in assay [2] it was greater than 300 µM; in [3] it was greater than 300 µM; in assay [6], greater than 300 µM; on Mu-type opioid receptor [7], greater than 300 µM. The same compound showed a half-maximal activity concentration (AC50) on Vasopressin V1a receptor greater than 300 µM.

For the compound `c1cnc2cc3c(cc2n1)[C@@H]1CNC[C@H]3C1` [VARENICLINE], the AC50 (in assay [1]; at Histamine H1 receptor; in [2]; in [3]; in assay [6]; at Mu-type opioid receptor [7]) was greater than 30 µM throughout. The compound also gave a concentration at half-maximal activity (AC50) at Vasopressin V1a receptor greater than 30 µM.

With `Cn1cnc2c(F)c(Nc3ccc(Br)cc3F)c(C(=O)NOCCO)cc21` [BINIMETINIB], the half-maximal activity concentration (AC50) (in assay [1]; on Histamine H1 receptor; in assay [2]; in [3]; in assay [6]; on Mu-type opioid receptor [7]) was greater than 30 µM each time. In addition, the AC50 at Vasopressin V1a receptor was greater than 30 µM.

Regarding `N[C@@H](Cc1cc(I)c(Oc2cc(I)c(O)c(I)c2)c(I)c1)C(=O)O` [LEVOTHYROXINE], the half-maximal activity concentration (AC50) on B2 bradykinin receptor was greater than 10 µM; in assay [1] it was greater than 30 µM; on Histamine H1 receptor, greater than 30 µM; in assay [2], greater than 30 µM; in assay [3], greater than 30 µM; in assay [6], greater than 30 µM. The concentration at half-maximal activity (AC50) (in assay [4]; at Vasopressin V1a receptor) was greater than 30 µM throughout.

Consider `O=C1[C@@H]2[C@H]3CC[C@H](C3)[C@@H]2C(=O)N1C[C@@H]1CCCC[C@H]1CN1CCN(c2nsc3ccccc23)CC1` [LURASIDONE], for which the concentration at half-maximal activity (AC50) on Mu-type opioid receptor [8] was greater than 10 µM; in assay [9], greater than 30 µM; at Histamine H1 receptor it was 8.7 µM; on D(3) dopamine receptor it was 0.0042 µM; in [3] it was greater than 30 µM; on Thromboxane A2 receptor, greater than 30 µM. Also, the concentration at half-maximal activity (AC50) in assay [10] is 22.5 µM; on Mu-type opioid receptor [7], greater than 30 µM; at Vasopressin V1a receptor, greater than 30 µM.

Turning to `CC[N+](CC)(CCNC(=O)C(=O)NCC[N+](CC)(CC)Cc1ccccc1Cl)Cc1ccccc1Cl` [AMBENONIUM], the AC50 is greater than 30 µM in assay [5]; greater than 30 µM on B2 bradykinin receptor; 1.6 µM in [1]; greater than 30 µM at Histamine H1 receptor; greater than 30 µM in assay [2]; 6.1 µM in [3]. Further, the AC50 (in assay [6]; in assay [4]; at Vasopressin V1a receptor) was greater than 30 µM in each case.

For the compound `CN(C)CCc1c[nH]c2ccc(CS(=O)(=O)N3CCCC3)cc12` [ALMOTRIPTAN], the AC50 at B2 bradykinin receptor is greater than 30 µM; in assay [1], greater than 30 µM; at Histamine H1 receptor, greater than 30 µM; in assay [2], 13 µM; in [3] it was greater than 30 µM; in assay [6], greater than 30 µM. In addition, the AC50 (in assay [4]; on Vasopressin V1a receptor) was greater than 30 µM in each case.

For `CC(C)/N=c1\cc2n(-c3ccc(Cl)cc3)c3ccccc3nc-2cc1Nc1ccc(Cl)cc1` [CLOFAZIMINE], the AC50 is 5 µM in [5]; greater than 30 µM at B2 bradykinin receptor; 13 µM in assay [1]; 8.56 µM on Histamine H1 receptor; greater than 30 µM in assay [2]; 20 µM in [3]. Besides, the AC50 in assay [6] was greater than 30 µM; in [4], 22 µM; at Vasopressin V1a receptor it was greater than 30 µM.

As to `CCOC(=O)Nc1ccc(NCc2ccc(F)cc2)nc1N` [FLUPIRTINE], the AC50 (in assay [5]; on B2 bradykinin receptor; in assay [1]; at Histamine H1 receptor; in assay [2]; in [3]) was greater than 30 µM each time. Moreover, the half-maximal activity concentration (AC50) (in assay [6]; in assay [4]; on Vasopressin V1a receptor) was greater than 30 µM each time.

For `C[C@H](CCC(=O)O)[C@H]1CC[C@H]2[C@@H]3[C@H](O)C[C@@H]4C[C@H](O)CC[C@]4(C)[C@H]3CC[C@]12C` [CHENODIOL], the AC50 (in [1]; on Histamine H1 receptor; in assay [2]; in assay [6]; at Mu-type opioid receptor [7]; on Vasopressin V1a receptor) was greater than 30 µM each time.

For the compound `C[C@H](Cn1cnc2c(N)ncnc21)OCP(=O)(O)O` [TENOFOVIR ANHYDROUS], the AC50 (in assay [5]; on B2 bradykinin receptor; in assay [1]; on Histamine H1 receptor; in assay [2]; in assay [3]) was greater than 30 µM each time. Besides, the half-maximal activity concentration (AC50) (in assay [6]; in assay [4]; at Vasopressin V1a receptor) was greater than 30 µM each time.
